Data as given in patent publication US20200270309A1, “MALEIMIDE GROUP-MODIFIED ANGIOGENESIS INHIBITOR HM-1 AND USE THEREOF” (NANJING ANJI BIOLOGICAL TECHNOLOGY CO., LTD, priority 2017, published 2020).
Marks after values point to notes of the source that are not given here. Peptide text beside a SMILES is read from it. * marks the point of attachment. X65 = O=C1C=CC(=O)N1c1cccc(CCCCCCCCCCCCC(=O)*)c1; X64 = O=C1C=CC(=O)N1c1cccc(CCCCCCCCCC(=O)*)c1; X66 = O=C1C=CC(=O)N1c1cccc(CCCCCCCC(=O)*)c1

Columns and labels:
[1] = test system: IL-1β production by mouse peritoneal macrophages; assay: IL-1β production by mouse peritoneal macrophages (ELISA); type: cell-based; settings: for Inhibition rate: IL-1β production, vs model group; for IL-1β: mouse peritoneal macrophages, 48 h, ELISA
Experimental: Mice were injected intraperitoneally with 1 mL of broth culture medium (containing 6% of starch). Three days later, mice peritoneal macrophages were taken aseptically and washed twice with 1640 culture medium, and the cell concentration was adjusted to 2×10^6 cells/mL. The solutions were injected into 24-well culture plates at 1 mL per well. The cells were incubated in a cell incubator for 3 h and vibrated once every 30 min to make the cells fully adhere to the wall. Then, the cells were washed twice with a culture solution to remove non-adhered cells. PBS was added to the blank group, positive drug Dex was added to the positive group, no drug was added to the model group, and polypeptides X1-X90 with low, medium and high concentrations were added to the test groups; and the cells were continuously cultured for 48 h after administration, and then centrifuged at 1000 r/min for 15 min. The supernatant was collected as a sample to be tested for IL-1β activity.

[2] = test system: retinal vascular endothelial nuclei; assay: Neovascularization in a rat model of premature retinopathy; type: in vivo, rats; settings: dose 0.05 μM in the vitreous chamber from day 7 of modeling for one week; counted on day 14; oxygen-induced neonatal rats
Experimental: Using a fluctuating oxygen-induced animal model, newborn rats born naturally on the same day (within 12 h) were randomly divide into three groups: an oxygen model group, an oxygen treatment group and a normal control group. The oxygen model was further divided into three sub-group model groups, and the sub-group model groups and the treatment group were all placed in a semi-closed oxygen chamber made of organic glass; medical oxygen was introduced into the chamber, and the concentration was adjusted to 80%±2% by an oxygen meter; nitrogen was introduced into the oxygen chamber after 24 h, and the oxygen concentration was adjusted to 10%±2% rapidly and maintained for 24 h. This was repeated to keep the oxygen concentration in the oxygen chamber alternating between 80% and 10% every 24 h, the oxygen concentration was maintained for 7 d, and then the rats were fed in the air. The oxygen concentration was monitored 8 times a day, and the ambient temperature in the chamber was controlled at 23° C.±2° C. Bedding was replaced, feed was added, and water and mother rats were replaced once. The normal control group was placed in the animal room feeding environment. […] The oxygen treatment group was divided into three subgroups. On day 7 of modeling, X1-[…], […]-[…] and […]-X90 were injected in the vitreous chamber respectively, and the oxygen model group and the control group were only given normal saline for one week. On day 14, after the rats were anesthetized by diethyl ether and killed, eyeballs were extracted and fixed in 40 g/L paraformaldehyde solution for 24 h. Gradient dehydration by alcohol was performed, and the eyeballs were processed by xylene to be transparent. After waxing, the eyeballs were sectioned continuously to a thickness of 4μm, and the periphery of the optic disc should be avoided as much as possible. The sections were parallel to the sagittal plane from cornea to the optic disc. Ten sections of each eyeball were randomly taken and stained with hematoxylin eosin, the number of vascular endothelial nuclei that broke through the inner limiting membrane of the retina (only the number of vascular endothelial nuclei closely related to the inner limiting membrane were counted) was counted, and statistics of the average number of cells per section per eyeball was performed. Results: In the control group, there were no vascular endothelial nuclei that broke through the inner limiting membrane of the retina and grew into vitreous body, or the vascular endothelial nuclei were occasionally found in only a few sections. In the model group, there were many vascular endothelial nuclei that broke through the inner limiting membrane of the retina, some appeared alone, and some appeared in clusters. At the same time, on some sections, these vascular endothelial nuclei were also found adjacent to deep retinal vessels, confirming that they originated from the retina rather than the vitreous body or other ocular tissues. In the treatment group, only a few vascular endothelial nuclei that broke through the inner limiting membrane of retina could be seen in the sections.

[3] = test system: HUVECs; assay: Transwell migration inhibition on HUVECs; type: cell-based, human; settings: for Inhibition rate (%): HUVEC migration vs blank control; for Cell migration number (Mean ± SD): HUVECs, transwell, 24 h
[4] = test system: xylene-induced ear swelling; assay: Xylene-induced mouse ear swelling; type: in vivo; settings: Kunming mice, injected once a day for 5 days; for Swelling degree / Swelling degree (mg): right minus left ear piece weight 2 h after xylene; for Inhibition rate (%): xylene-induced ear swelling
Experimental: Kunming mice were taken, a normal saline group was taken as a blank control group, an aspirin group (200 mg/kg) was taken as a positive control group, and X1-X90 administration groups were taken as test groups. The mice were injected once a day for 5 consecutive days. The blank control group was given an equal volume of normal saline. One hour after the last administration, 0.05 mL of xylene was applied to both sides of the right ear of each mouse to cause inflammation, while no drug was applied to the left ear as a normal ear. Two hours later, the mice were put to death by dislocation. Two ears were cut along the auricle. Ear pieces were taken with a puncher and weighed, and the swelling degree and the swelling rate were calculated. Swelling degree=right ear piece weight-left ear piece weight, swelling rate=(swelling degree/left ear piece weight)*100%. Statistical t-test was conducted on the experimental results. *P<0.05 indicates significant difference, and **P<0.01 indicates extremely significant difference.

[5] = test system: retinal neovascularization (OIR model); assay: Retinal vessels in OIR mice; type: in vivo, C57/B16 mice; settings: for Area of neovascular plexus (mm^2): dose 0.05 μM in the vitreous chamber on day 13, retinal vessels evaluated on day 17; for Inhibition rate (%): dose 0.05 μM in the vitreous chamber on day 13, retinal vessels evaluated on day 17, vs negative control
Source text: Establishment of an OIR model: Young mice and their mothers were exposed in a 75% hyperoxic environment from day 7 to day 12 after the birth of C57/B16 mice, which caused capillaries in their central retina to disappear rapidly. The mice were returned to the indoor air on day 12, retinal vessels exposed to hyperoxia quickly disappeared, causing extensive abnormal neoangiogenesis, and the central part of the retina remained largely avascular for a long time. After the blood vessels disappeared completely, the mice were injected with normal saline (a negative group), X1-X12, X13-X44, X45-X90 in the vitreous chamber on day 13 respectively, and retinal vessels were evaluated on day 17 ([…] of Texas red labeled tomato agglutinin was injected into the left ventricle to mark unclosed vessels and circulated for 5 min).

[6] = test system: corneal neovascularization; assay: Corneal neovascularization induced by alkali burn in BALB/c mice; type: in vivo; parameters: Inhibition rate (corneal neovascularization): concentration or dose not given beside the values; settings: day 14 after alkali burn, vitreous injection once a day for 1 week
[7] = test system: collagen-induced arthritis; assay: Mouse collagen-induced arthritis (CIA) animal model; type: in vivo; settings: DBA/1 mice CIA model, dose 4.0 mg/kg, subcutaneous from day 30, n=10; for Clinical score: highest score 16

C[C@H](NC(=O)CNC(=O)[C@H](CCCNC(=N)N)NC(=O)CCCCCCCCCc1cccc(N2C(=O)C=CC2=O)c1)C(=O)N[C@@H](CC(=O)O)C(=O)N[C@@H](CCCNC(=N)N)C(=O)N[C@@H](C)C(=O)NCC(=O)NCC(=O)NCC(=O)NCC(=O)N[C@@H](CCCNC(=N)N)C(=O)NCC(=O)N[C@@H](CC(=O)O)C(=O)O [X33] (X64-RGADRAGGGGRGD-OH)
Inhibition rate ([1]; dose 0.05 μM): 25.68%
IL-1β ([1]; dose 0.05 μM): 699.41 ± 11.17 pg/mL
Inhibition rate ([1]; dose 0.1 μM): 34.80%
IL-1β ([1]; dose 0.1 μM): 613.62 ± 19.23 pg/mL
Inhibition rate ([1]; dose 0.2 μM): 36.96%
IL-1β ([1]; dose 0.2 μM): 593.32 ± 11.64 pg/mL
Nuclei count (retinal vascular endothelial nuclei, average per section per eyeball) [2]: 7.654 ± 1.142
Inhibition rate (%) ([3]; dose 0.05 μM): 42.63%
Inhibition rate (%) ([3]; dose 0.1 μM): 47.45%
Inhibition rate (%) ([3]; dose 0.2 μM): 54.20%
Swelling degree ([4]; dose 2 mg/kg): 3.22 ± 0.59 mg
Inhibition rate (%) ([4]; dose 2 mg/kg): 17.34%
Swelling degree (mg) ([4]; dose 4 mg/kg): 5.15 ± 0.19* mg
Inhibition rate (%) ([4]; dose 4 mg/kg): 29.21%
Swelling degree (mg) ([4]; dose 8 mg/kg): 4.41 ± 0.9** mg
Inhibition rate (%) ([4]; dose 8 mg/kg): 48.31%
Area of neovascular plexus (mm^2) [5]: 0.089 ± 0.029 mm^2
Inhibition rate (%) [5]: 58.02%**
Inhibition rate (corneal neovascularization) [6]: 47.20%
MVD (corneal microvessel density) [6]: 35.50 ± 3.223
Joint swelling degree (mm) [7]: 0.82 ± 0.11 mm
Left and right paw swelling degree (mm) [7]: 0.74 ± 0.17 mm
Clinical score [7]: 9.08 ± 1.25

C[C@H](NC(=O)CNC(=O)[C@H](CCCNC(=N)N)NC(=O)CCCCCCCc1cccc(N2C(=O)C=CC2=O)c1)C(=O)N[C@@H](CC(=O)O)C(=O)N[C@@H](CCCNC(=N)N)C(=O)N[C@@H](C)C(=O)NCC(=O)NCC(=O)NCC(=O)NCC(=O)N[C@@H](CCCNC(=N)N)C(=O)NCC(=O)N[C@@H](CC(=O)O)C(=O)O [X31] (X66-RGADRAGGGGRGD-OH)
Inhibition rate ([1]; dose 0.05 μM): 15.28%
IL-1β ([1]; dose 0.05 μM): 797.34 ± 10.46 pg/mL
Inhibition rate ([1]; dose 0.1 μM): 18.74%
IL-1β ([1]; dose 0.1 μM): 764.81 ± 19.08 pg/mL
Inhibition rate ([1]; dose 0.2 μM): 23.12%
IL-1β ([1]; dose 0.2 μM): 723.57 ± 18.58 pg/mL
Nuclei count (retinal vascular endothelial nuclei, average per section per eyeball) [2]: 7.228 ± 3.184
Inhibition rate (%) ([3]; dose 0.05 μM): 40.18%
Inhibition rate (%) ([3]; dose 0.1 μM): 46.67%
Inhibition rate (%) ([3]; dose 0.2 μM): 55.21%
Cell migration number (Mean ± SD) ([3]; dose 0.05 μM): 641.17 ± 61.85
Cell migration number (Mean ± SD) ([3]; dose 0.1 μM): 571.62 ± 42.83
Cell migration number (Mean ± SD) ([3]; dose 0.2 μM): 480.05 ± 67.72
Swelling degree (mg) ([4]; dose 4 mg/kg): 4.22 ± 0.51** mg
Inhibition rate (%) ([4]; dose 4 mg/kg): 32.26%
Swelling degree (mg) ([4]; dose 8 mg/kg): 5.18 ± 0.71** mg
Inhibition rate (%) ([4]; dose 8 mg/kg): 49.28%
Area of neovascular plexus (mm^2) [5]: 0.101 ± 0.013 mm^2
Inhibition rate (%) [5]: 52.83%**
Inhibition rate (corneal neovascularization) [6]: 45.42%
MVD (corneal microvessel density) [6]: 36.70 ± 5.505
Joint swelling degree (mm) [7]: 0.78 ± 0.15 mm
Left and right paw swelling degree (mm) [7]: 0.77 ± 0.15 mm
Clinical score [7]: 8.75 ± 1.38

C[C@H](NC(=O)CNC(=O)[C@H](CCCNC(=N)N)NC(=O)CCCCCCCCCCCCc1cccc(N2C(=O)C=CC2=O)c1)C(=O)N[C@@H](CC(=O)O)C(=O)N[C@@H](CCCNC(=N)N)C(=O)N[C@@H](C)C(=O)NCC(=O)NCC(=O)NCC(=O)NCC(=O)N[C@@H](CCCNC(=N)N)C(=O)NCC(=O)N[C@@H](CC(=O)O)C(=O)O [X36] (X65-RGADRAGGGGRGD-OH)
Inhibition rate ([1]; dose 0.05 μM): 17.18%
IL-1β ([1]; dose 0.05 μM): 779.49 ± 11.56 pg/mL
Inhibition rate ([1]; dose 0.1 μM): 34.09%
IL-1β ([1]; dose 0.1 μM): 620.34 ± 15.26 pg/mL
Inhibition rate ([1]; dose 0.2 μM): 34.16%
IL-1β ([1]; dose 0.2 μM): 619.62 ± 11.89 pg/mL
Nuclei count (retinal vascular endothelial nuclei, average per section per eyeball) [2]: 8.726 ± 3.273
Inhibition rate (%) ([3]; dose 0.05 μM): 52.07%
Inhibition rate (%) ([3]; dose 0.1 μM): 56.76%
Inhibition rate (%) ([3]; dose 0.2 μM): 57.92%
Cell migration number (Mean ± SD) ([3]; dose 0.05 μM): 513.79 ± 55.46
Cell migration number (Mean ± SD) ([3]; dose 0.1 μM): 463.47 ± 50.27
Cell migration number (Mean ± SD) ([3]; dose 0.2 μM): 451.01 ± 43.85
Swelling degree ([4]; dose 2 mg/kg): 5.37 ± 0.84 mg
Inhibition rate (%) ([4]; dose 2 mg/kg): 13.80%
Swelling degree ([4]; dose 4 mg/kg): 5.37 ± 0.21 mg
Inhibition rate (%) ([4]; dose 4 mg/kg): 13.80%
Swelling degree (mg) ([4]; dose 8 mg/kg): 4.7 ± 0.97* mg
Inhibition rate (%) ([4]; dose 8 mg/kg): 24.56%
Area of neovascular plexus (mm^2) [5]: 0.084 ± 0.009 mm^2
Inhibition rate (%) [5]: 60.38%**
Inhibition rate (corneal neovascularization) [6]: 45.52%
MVD (corneal microvessel density) [6]: 36.63 ± 5.284
Joint swelling degree (mm) [7]: 0.74 ± 0.14 mm
Left and right paw swelling degree (mm) [7]: 0.77 ± 0.13 mm
Clinical score [7]: 8.86 ± 1.23
